pIC50: −log10 of the molar value. Calls of active or inactive are those of the source.
What was measured:
Platelet [1] = assay: Antiplatelet activity in human platelet rich plasma assessed as inhibition of arachidonic acid-induced platelet aggregation at 100 uM preincubated for 2 mins followed by arachidonic acid addition by turbidimetric method relative to control; assay type: functional
Platelet [2] = assay: Antiplatelet activity in human platelet rich plasma assessed as inhibition of ADP-induced platelet aggregation at 100 uM preincubated for 2 mins followed by ADP addition by turbidimetric method relative to control; assay type: cell-based
Platelet [3] = assay: Antiplatelet activity in human platelet rich plasma assessed as inhibition of collagen-induced platelet aggregation at 100 uM preincubated for 2 mins followed by collagen addition by turbidimetric method relative to control; assay type: cell-based
Platelet [4] = assay: Antiplatelet activity in human platelet rich plasma assessed as inhibition of epinephrine-induced platelet aggregation at 100 uM preincubated for 2 mins followed by epinephrine addition by turbidimetric method relative to control; assay type: cell-based
Platelet [5] = assay: Antiplatelet activity in human platelet rich plasma assessed as inhibition of arachidonic acid-induced platelet aggregation preincubated for 2 mins followed by arachidonic acid addition by turbidimetric method relative to control; assay type: functional, cell-based
Platelet [6] = assay: Antiplatelet activity in human platelet rich plasma assessed as inhibition of ADP-induced platelet aggregation preincubated for 2 mins followed by ADP addition by turbidimetric method; assay type: cell-based
Platelet [7] = assay: Antiplatelet activity in human platelet rich plasma assessed as inhibition of collagen-induced platelet aggregation preincubated for 2 mins followed by collagen addition by turbidimetric method; assay type: cell-based
Platelet [8] = assay: Antiplatelet activity in human platelet rich plasma assessed as inhibition of epinephrine-induced platelet aggregation preincubated for 2 mins followed by epinephrine addition by turbidimetric method; assay type: cell-based
[9] = molecular target: T1, Prostaglandin G/H synthase 1 (Ovis aries, UniProt P05979); assay: Inhibition of ovine COX-1 assessed as reduction in PGH2 production up to 100 uM using arachidonic acid as substrate preincubated for 5 mins followed by substrate and hematin addition measured after 2 mins by ELISA relative to control; details: sheep
T1 sequence (P05979 whole entry): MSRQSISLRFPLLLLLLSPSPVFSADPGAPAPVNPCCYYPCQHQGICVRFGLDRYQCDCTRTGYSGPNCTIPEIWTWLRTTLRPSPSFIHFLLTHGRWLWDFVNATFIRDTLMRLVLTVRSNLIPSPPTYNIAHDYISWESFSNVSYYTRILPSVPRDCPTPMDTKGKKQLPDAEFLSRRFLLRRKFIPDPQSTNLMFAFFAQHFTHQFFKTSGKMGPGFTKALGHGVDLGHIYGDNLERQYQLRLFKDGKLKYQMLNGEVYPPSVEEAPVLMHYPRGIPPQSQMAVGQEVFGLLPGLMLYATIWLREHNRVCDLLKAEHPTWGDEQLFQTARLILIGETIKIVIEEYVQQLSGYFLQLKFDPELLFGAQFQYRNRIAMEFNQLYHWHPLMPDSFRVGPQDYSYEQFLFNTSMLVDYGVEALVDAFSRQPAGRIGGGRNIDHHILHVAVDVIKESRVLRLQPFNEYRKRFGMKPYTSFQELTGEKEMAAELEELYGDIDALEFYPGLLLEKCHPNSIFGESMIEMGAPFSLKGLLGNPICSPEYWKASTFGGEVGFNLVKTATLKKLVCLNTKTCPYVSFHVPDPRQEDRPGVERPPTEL

[10] = molecular target: T2, Prostaglandin G/H synthase 2 (Homo sapiens, UniProt P35354); assay: Inhibition of recombinant human COX-2 assessed as reduction in PGH2 production up to 100 uM using arachidonic acid as substrate preincubated for 5 mins followed by substrate and hematin addition measured after 2 mins by ELISA relative to control
T2 sequence (P35354 whole entry): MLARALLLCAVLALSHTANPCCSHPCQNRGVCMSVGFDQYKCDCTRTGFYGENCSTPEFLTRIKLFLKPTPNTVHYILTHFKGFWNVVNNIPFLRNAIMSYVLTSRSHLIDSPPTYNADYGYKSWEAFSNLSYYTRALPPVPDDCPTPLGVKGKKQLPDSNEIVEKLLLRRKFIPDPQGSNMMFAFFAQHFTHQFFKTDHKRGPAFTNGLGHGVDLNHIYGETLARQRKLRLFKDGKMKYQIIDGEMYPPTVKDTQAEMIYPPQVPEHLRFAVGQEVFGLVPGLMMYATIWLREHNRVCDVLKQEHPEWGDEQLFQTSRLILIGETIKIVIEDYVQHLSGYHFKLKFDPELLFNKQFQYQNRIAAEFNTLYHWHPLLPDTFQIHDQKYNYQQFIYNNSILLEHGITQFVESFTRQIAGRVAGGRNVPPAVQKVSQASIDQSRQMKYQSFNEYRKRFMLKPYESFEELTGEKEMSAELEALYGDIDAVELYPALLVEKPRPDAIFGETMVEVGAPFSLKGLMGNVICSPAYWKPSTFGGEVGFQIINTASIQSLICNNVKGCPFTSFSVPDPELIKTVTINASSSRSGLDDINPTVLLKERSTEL

[11] = molecular target: T3, Thromboxane-A synthase (Homo sapiens) (UniProt P24557); assay: Inhibition of TXS in human platelet rich plasma assessed as decrease in TXB2 production at 100 uM using arachidonic acid after 5 mins by ELISA
T3 sequence (whole entry): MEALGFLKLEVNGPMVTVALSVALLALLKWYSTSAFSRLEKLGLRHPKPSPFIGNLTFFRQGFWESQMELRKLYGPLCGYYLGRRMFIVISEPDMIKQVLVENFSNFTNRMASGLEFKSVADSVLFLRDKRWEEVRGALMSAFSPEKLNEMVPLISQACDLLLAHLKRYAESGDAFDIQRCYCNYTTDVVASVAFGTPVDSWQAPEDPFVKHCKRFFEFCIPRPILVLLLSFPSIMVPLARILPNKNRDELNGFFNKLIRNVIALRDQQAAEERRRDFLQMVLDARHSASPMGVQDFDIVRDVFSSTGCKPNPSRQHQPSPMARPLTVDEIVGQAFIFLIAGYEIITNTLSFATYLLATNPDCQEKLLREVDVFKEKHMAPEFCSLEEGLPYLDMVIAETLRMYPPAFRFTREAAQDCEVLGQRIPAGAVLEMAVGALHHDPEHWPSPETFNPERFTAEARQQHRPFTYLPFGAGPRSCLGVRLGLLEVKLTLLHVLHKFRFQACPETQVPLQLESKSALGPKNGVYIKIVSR

[12] = Binding affinity to DOPC/DOPS large unilamellar vesicles assessed as blue shift at 100 uM by DAPI staining based fluorescence assay
Platelet [13] = assay: Drug uptake in human platelet assessed as co-localization with CD31 at 100 uM by epifluorescence assay; assay type: ADME, cell-based
Platelet [14] = assay: Drug uptake in human platelet assessed as co-localization with CD31 at 100 uM by confocal microscopy analysis; assay type: ADME, cell-based
[15] = Hemolytic activity against human erythrocytes after 3 hrs relative to control; assay type: ADME, cell-based, Erythrocyte; details: read-out: Activity
Cytochrome P450 3A4 = Cytochrome P450 3A4 (Homo sapiens, UniProt P08684); assay: Inhibition of recombinant human CYP3A4 expressed in baculosomes using BOMR as substrate preincubated for 10 mins followed by substrate/NADP+ addition measured for 1 hr; assay type: ADME
Platelet [16] = assay: Antiplatelet activity in human platelet rich plasma assessed as inhibition of […]-induced platelet aggregation at 100 uM preincubated for 2 mins followed by […] addition by turbidimetric method; assay type: functional, cell-based
Blood = assay: Reduction of clot retraction in human whole blood after 2 hrs; assay type: ADME, tissue-based
Plasma [17] = assay: Change in prothrombin time in human plasma at 100 uM incubated for 15 mins at room temperature and 2 mins at 37 degC in presence of calcium thromboplastin; assay type: ADME, cell-free
Plasma [18] = assay: Change in activated partial thromboplastin time in human plasma at 100 uM incubated for 15 mins at room temperature and 2 mins at 37 degC in presence of CaCl2; assay type: ADME, cell-free
[19] = molecular target: Prostaglandin G/H synthase 1 (Homo sapiens, UniProt P23219); assay: Inhibition of COX1 in human platelet rich plasma assessed as decrease in PGE2 production at 100 uM using arachidonic acid as substrate after 5 mins by ELISA
Prostaglandin G/H synthase 1 (Homo sapiens, UniProt P23219), sequence (P23219 whole entry): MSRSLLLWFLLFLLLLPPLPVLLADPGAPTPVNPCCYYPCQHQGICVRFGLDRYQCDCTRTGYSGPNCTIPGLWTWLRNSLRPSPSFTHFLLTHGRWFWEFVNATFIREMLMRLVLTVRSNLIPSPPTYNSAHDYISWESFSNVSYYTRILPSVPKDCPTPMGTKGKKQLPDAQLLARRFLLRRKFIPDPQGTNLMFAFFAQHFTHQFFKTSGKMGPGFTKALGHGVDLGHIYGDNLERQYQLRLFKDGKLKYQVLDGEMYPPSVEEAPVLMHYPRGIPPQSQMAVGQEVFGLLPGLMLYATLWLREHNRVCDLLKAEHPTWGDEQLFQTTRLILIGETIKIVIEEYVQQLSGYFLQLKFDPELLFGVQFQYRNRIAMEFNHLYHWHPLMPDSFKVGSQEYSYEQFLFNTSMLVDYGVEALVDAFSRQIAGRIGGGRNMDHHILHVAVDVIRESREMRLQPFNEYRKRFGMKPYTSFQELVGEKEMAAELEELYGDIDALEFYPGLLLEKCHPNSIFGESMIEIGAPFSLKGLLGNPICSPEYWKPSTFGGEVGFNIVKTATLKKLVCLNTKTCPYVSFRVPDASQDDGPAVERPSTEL

Cytochrome P450 3A4, sequence (P08684 whole entry): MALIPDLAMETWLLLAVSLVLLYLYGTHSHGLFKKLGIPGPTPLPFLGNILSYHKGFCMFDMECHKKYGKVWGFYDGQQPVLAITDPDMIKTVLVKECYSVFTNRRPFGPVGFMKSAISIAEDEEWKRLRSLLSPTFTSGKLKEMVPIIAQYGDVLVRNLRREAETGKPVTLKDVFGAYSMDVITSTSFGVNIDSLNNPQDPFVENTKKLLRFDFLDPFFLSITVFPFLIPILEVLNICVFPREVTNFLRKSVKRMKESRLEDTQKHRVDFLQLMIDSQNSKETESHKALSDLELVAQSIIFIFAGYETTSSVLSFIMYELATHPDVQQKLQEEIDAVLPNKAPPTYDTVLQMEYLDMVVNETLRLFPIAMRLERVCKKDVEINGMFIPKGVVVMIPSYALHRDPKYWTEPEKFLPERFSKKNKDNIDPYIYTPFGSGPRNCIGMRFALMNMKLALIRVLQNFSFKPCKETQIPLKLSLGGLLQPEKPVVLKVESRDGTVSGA

SMILES	inhibition at 100 µM (Platelet [1]) [%]	inhibition at 100 µM (Platelet [2]) [%]	inhibition at 100 µM (Platelet [3]) [%]	inhibition at 100 µM (Platelet [4]) [%]	Activity (Plasma [17])	Activity (Plasma [18])	also measured
Cc1cc(C(=O)N/N=C/c2ccc([N+](=O)[O-])cc2)c2c(C)nn(-c3ccccc3)c2n1	95	0	4.1	4.15	Non-Toxic	Non-Toxic	pIC50 (Platelet [5]): 4.10; pIC50 (Platelet [6]): < 4.00; pIC50 (Platelet [7]): < 4.00; pIC50 (Platelet [8]): < 4.00; inhibition (INH) [9]: Not Active; inhibition (INH) [10]: Not Active; inhibition [11]: Active; Activity [12]: Active; Drug uptake (Platelet [13]): Active; Drug uptake (Platelet [14]): Active; hemolysis at 3 h [15]: 7.3%; pIC50 (Cytochrome P450 3A4): 3.81; inhibition (Platelet [16]): inactive; Activity (Blood): Non-Toxic; inhibition (INH) [19]: Not Active
Cc1nn(-c2ccccc2)c2nc(C(F)(F)F)cc(C(=O)N/N=C/c3ccc(O)cc3)c12	10.4	12.5	13.3	15.9	Non-Toxic	Non-Toxic	hemolysis at 3 h [15]: 99%
O=C(O)/C=C/c1ccc(Cn2ccnc2)cc1 [OZAGREL]							pIC50 (Platelet [5]): 4.27; inhibition [11]: Active
Cc1nn(-c2ccccc2)c2nc(C(F)(F)F)cc(C(=O)N/N=C/c3ccccc3)c12	0.27	5.98	0	14.1	Non-Toxic	Non-Toxic	
CCOc1ccc(/C=N/NC(=O)c2cc(C)nc3c2c(C)nn3-c2ccccc2)cc1	1.26	1.69	0	0	Non-Toxic	Non-Toxic	
COc1ccc(/C=N/NC(=O)c2cc(C(F)(F)F)nc3c2c(C)nn3-c2ccccc2)cc1	2.39	0	0	0	Non-Toxic	Non-Toxic	
Cc1nn(-c2ccccc2)c2nc(C(F)(F)F)cc(C(=O)N/N=C/c3ccc(Cl)cc3)c12	6.71	10.1	0	17	Non-Toxic	Non-Toxic	
Cc1nn(-c2ccccc2)c2nc(C(F)(F)F)cc(C(=O)N/N=C/c3ccc([N+](=O)[O-])cc3)c12	0	6.93	0	0	Non-Toxic	Non-Toxic	

Source: ChEMBL document CHEMBL4033666, “Synthesis and mechanistic evaluation of novel N'-benzylidene-carbohydrazide-1H-pyrazolo[3,4-b]pyridine derivatives as non-anionic antiplatelet agents” (Eur J Med Chem, 2017)
